Assay results from patent US20080089860A1, “Therapeutic compositions and methods useful in treating cancer” (priority 2006, published 2008).
“Also recorded” adds a separate entry of the source.

What was measured:
[1] = test system: Jak2/Stat5 and cellular protein tyrosine phosphorylation in Baf3 cells; assay: Cellular protein phosphorylation and Western blotting in Baf3 cells; type: cell-based, murine
Procedure: For induction of cellular protein phosphorylation by sodium stibogluconate or pervanadate, Baf3 cells were incubated in 0.1% FCS-RPMI 1640 medium at 37° C. for 16 hours. The cells were then washed twice in RPMI 1640 medium and incubated with sodium stibogluconate or pervanandate (0.1 mM) for various times prior to termination by lysing cells in cold lysis buffer (50 mM Tris, pH 7.4; 150 mM NaCl; 0.2 mM Na3VO4; 20 mm NaF; 1% Nonidet P-40; 2 mM PMSF; 20 µg/ml of Aprotinin and 1 mM of sodium molybdic acid). To determine the effect of sodium stibogluconate or potassium antimonyl tartrate on IL-3-induced Jak/Stat phosphorylation, Baf3 cells were deprived of the growth factor for 16 hours in 0.1% FCS RPMI 1640 medium and then incubated with or without sodium stibogluconate or potassium antimonyl tartrate for 10 minutes. IL-3 was next added to the cell suspension and incubated for various times. The Cells were then harvested and lysed in cold lysis buffer at 4° C. for 45 minutes. Total cell lysates (TCL) were separated in SDS-PAGE gels, blotted onto nitrocellulose membrane (Schleicher & Schuell), probed with specific antibodies and detected using an enhanced chemiluminescence kit (ECL, Amersham, Arlington Heights, Ill.).

TF-1 cells = assay: TF-1 cell proliferation assay; type: cell-based, human
Procedure: The murine hematopoietic cell line Baf3 was maintained in RPMI 1640 medium supplemented with 10% fetal calf serum (FCS) and murine IL-3 (20 units/ml) as described previously in Damen et al., J. Biol. Chem. 270, 23402 (1995). Human myeloid cell line TF-1 was maintained in RPMI 1640 supplemented with 10% FCS and 40 ng/ml of recombinant human GM-CSF as described previously in Thomassen et al., Clin. Immunol. 95, 85 (2000). For cell proliferation assays, cells were washed in 10% FCS medium twice, resuspended in 10% FCS medium, incubated at 37° C. for 16 hours, and then cultured at 37° C. in 10% FCS medium containing various amounts of cytokines, sodium stibogluconate, or potassium antimonyl tartrate for 3-6 days as indicated. The cell numbers in proliferation assays were determined by an MTT assay or by microscopic cell counting as indicated.

DR cells = assay: DR lymphoma cell growth, MTT assay; type: cell-based, human; settings: day 6; single agent at 50 μg/ml and 100 μg/ml
Procedure: (§1) For cell proliferation assays, cells were grown in 10% FCS culture medium containing various amounts of IFNs and/or sodium stibogluconate in 96 well plates and cultured at 37° C. for 3 or 6 days as indicated. The numbers of viable cells in proliferation assays were determined by MTT assays as described in Phatak et al., J. Immunol. 167, 3391 (2001).

DU145 cells = assay: DU145 prostate cancer cell growth, MTT assay; type: cell-based, human; settings: single agent, 50 μg/ml and 100 μg/ml
Procedure: as §1
NIH3T3 (Yi, et al., Blood 85, 87 (1995)), WM9 (Forsberg, et al., Proc. Nat. Acad. Sci. USA 90, 393 (1993)), DU145 (Mickey, et al., Cancer Res. 37, 4049 (1977)), LoVo (Drewinko, et al., Cancer Res. 36, 467 (1976)), HEY (Buick, et al., Cancer Res. 45, 3668 (1985)), U251 (Yoshida, et al., Cancer 50, 410 (1982)), A549 (Giard, et al., J. Natl. Cancer Inst. 51, 1417 (1973)) and SK-N-SH (Helson, et al., Cancer Res. 35, 2594 (1975)) cell lines have been described and were cultured in RPMI 1640 supplemented with 10% fetal calf serum (FCS). For measurement of sodium stibogluconate effects on cell growth in vitro, cells were cultured in the absence (−) or presence (+) of various amounts of sodium stibogluconate for 6 days with viable cells quantified by MTT assays (Mosmann, J. Immunol. Methods 65, 55 (1983)). Percentages of growth inhibition by sodium stibogluconate were calculated (.+−.x %).

[2] = test system: Stat1 tyrosine phosphorylation; assay: IFN-alpha-induced Stat1 tyrosine phosphorylation, Western blotting; type: cell-based, human
Procedure: Cell lysates were prepared by lysing cells in cold lysis buffer for 30 min and cleared by centrifuging at 14,000 rpm at 4° C. for 15 min. For SDS-PAGE, cell lysates were mixed with equal volume of 2×SDS-PAGE sample buffer, heated at 90° C. for 5 min and separated in 10% SDS-PAGE gels. Cellular proteins in SDS-PAGE gels were transferred to nitrocellulose membrane (Schleicher & Schuell, Keene, N.H.), blocked in 5% milk, probed with antibodies and detected by using an enhanced chemiluminescence kit (ECL, Amersham, Arlington Heights, Ill.).

Renca tumors = Renca tumors in Balb/c mice; type: in vivo; settings: end of treatment
Procedure: Balb/c and athymic nude Balb/c mice (10 weeks old, female, Taconic Farms, Germantown, N.Y.) were inoculated (s.c.) at the flanks with Renca cells (10^6 cells/site). […] Student's t test was used for assessing the significance of tumor volume differences among differential treatment groups. Mouse viability (daily) and body weights (weekly) were also recorded during the study period. At the end of the study, Renca tumors and major internal organs (heart, kidney, liver, lung and spleen) were harvested for histology and immunohistochemistry analysis.

DU145 tumors = DU145 tumors in athymic nude mice, sodium stibogluconate alone; settings: mouse, in vivo
Procedure: Athymic nude mice (nu/nu, NCR), 4 weeks old (Taconic), were inoculated (s.c.) in the flanks with DU145 cells (3×10^6 cells/site) on day 0, Starting on day 2, the mice were subjected to no treatment (Control) or treatment with sodium stibogluconate (12 mg, […], daily, i.m., at the hip area). The dosage of sodium stibogluconate used in the study was similar to the effective daily dose of sodium stibogluconate for the treatment of murine leishmaniasis (Murray, et al. 1988). Tumor volume was measured and calculated using the formula for a prolate spheroid (V=4/3 7 a^2b) (Lindner, et al. 1997). Hematoxylin+Eosin (H.E.) stained tissue sections of internal organs and tumor inoculation sites tissues of the mice were prepared and subjected microscopic evaluation.
Nude mice were inoculated with DU145 cells sub-cutaneously at the shoulder area. Two days after inoculation when tumors were visible, the mice were subjected to no treatment (control) or sodium stibogluconate treatment (daily injection of 440 mg/kg, intermuscular at the hip area). […] Histology of their major organs was unremarkable.

[3] = cited from earlier work

Q: For `O.O.O.O.O.O.O.O.O.O=C([O-])[C@@H]1[O][Sb]2([O-])([O][Sb]34([OH])[O][C@H]([C@H](O)CO)[C@H]([O]3)[C@H](C(=O)[O-])[O]4)[O][C@H]([C@H](O)CO)[C@@H]1[O]2.[Na+].[Na+].[Na+]` [sodium stibogluconate], which “induced cellular protein tyrosine phosphorylation” value ([1]; Baf3 cells, in comparison with pervanadate (0.1 mM)) is on record?
A: The value was “modest and transient”.

Q: And the “phosphotyrosine levels of Jak2 and Stat5 relative to cells without drug treatment” value ([1]; IL-3-stimulated Baf3 cells, densitometry)?
A: Its value is “about twice”.

Q: What about the “Jak2/Stat5 tyrosine phosphorylation by drug alone” value ([1]; no IL-3, 37 °C for 16 hours) of the same compound?
A: Its value is “failed to induce”.

Q: And the “GM-CSF-induced proliferation of TF-1 cells” value (TF-1 cells; 50 μg/ml, GM-CSF 5-40 ng/ml)?
A: The value was “augmented”.

Q: And the “effect on GM-CSF-induced cell growth” value (TF-1 cells; low doses 12.5-50 μg/ml)?
A: Its value is “no negative effect”.

Q: And the “growth inhibition of DR cells” value (DR cells)?
A: The value was “complete or near complete killing”.

Q: And the “DU145 cells in day 6 culture” value (DU145 cells)?
A: The value was “killed all cells; also recorded: complete or near complete killing”.

Q: And the “IFN-alpha-induced Stat1 tyrosine phosphorylation in WM35 and WiT49-N1 cell lines” value [2]?
A: Its value is “failed to enhance”.

Q: What about the “Stat1 tyrosine phosphorylation in DR cells in the absence of IFN-alpha” value [2] of the same compound?
A: Its value is “failed to induce”.

Q: And the “IFN-alpha-induced Stat1 tyrosine phosphorylation in DR cells” value ([2]; 10 μg/ml, 30 min post-stimulation)?
A: The value was “approximately two folds greater than control”.

Q: What about the “IFN-alpha-induced Stat1 tyrosine phosphorylation in WM9 and DU145 cell lines” value ([2]; 5 hours post-stimulation) of the same compound?
A: Its value is “Enhanced”.

Q: What about the tolerability of treatment (Renca tumors) of the same compound?
A: Its tolerability of treatment is “tolerated well”.

Q: And the “histology of major organs” value (DU145 tumors)?
A: The value was “unremarkable”.

Q: And the survival of mice (DU145 tumors)?
A: Its survival of mice is “survived until the end of the study”.

Q: What about the “clinical tolerability at therapeutic dosages” value ([3]; human, in vivo) of the same compound?
A: Its value is “well tolerated”.

Q: What about the serum levels ([3]; standard dosage 10-20 mg/kg/day) of the same compound?
A: Its serum levels is no less than 10000 ng/mL.
